This is an account of results in patent US20080038386A1, “Use of a liquid cooling sensate to provide a pungent, warming or tingling sensate composition” (priority 2006, published 2008).

Assay [1] can be described thus: Sensory panel: pungency enhancement of a hot chile pepper sauce. In kind it is in vivo. An excerpt: For this type evaluation, a panel consisting of both professional flavorists and other individuals with sensory testing experience was employed. In each tasting session two samples were presented to the panelists in a randomized order to avoid presentation order effect. Panelists were asked to rate the samples as same or different. If different, panelists were asked to rate the “pungent, hotness (warming) or tingling” intensity and to describe the flavor profile as compared to a control sample without the eutectic cooling mixture.
A commercial hot chile pepper sauce derived from Capsicum frutescens var. tabasco (Tabasco® brand) (whose primary pungent principles are the amides capsaicin and dihydrocapsaicin) was diluted to 5% strength in water (the control). […] The control sample was the 5% strength hot chile pepper sauce. […] The degree of hotness (warmth) and pungency profile enhancement was judged to be 25-35%.

For assay [2] the following is noted: 30 ppm in sucrose solution; cited from earlier work.

Turning to `CCNC(=O)C1CC(C)CCC1C(C)C` (stereo not drawn) [WS-3, N-Ethyl-p-menthane-3-carboxamide], in assay [1] (28 ppm in 5% strength hot chile pepper sauce, especially in the back of the throat), the “accompanying sensory effect noted by panelists” value is “unpleasant irritating-scratchy effect”. The “sensory balance accompanying the pungency enhancement” value in assay [1] (capsaicin containing products (summary statement)) is “unbalanced scratchy-irritating and distorted sensory impression”. On to `C/C=C/C=C\CC/C=C/C(=O)NCC(C)C` [spilanthol, 2E,6Z,8E-decatrienoic acid-N-isobutylamide], for which the sensory description result in assay [2] is on record as “tingling & mouth watering”.
